Data set [1] deals with T1, Inactive serine/threonine-protein kinase 19 (Homo sapiens) (UniProt P49842).
T1 sequence (whole entry): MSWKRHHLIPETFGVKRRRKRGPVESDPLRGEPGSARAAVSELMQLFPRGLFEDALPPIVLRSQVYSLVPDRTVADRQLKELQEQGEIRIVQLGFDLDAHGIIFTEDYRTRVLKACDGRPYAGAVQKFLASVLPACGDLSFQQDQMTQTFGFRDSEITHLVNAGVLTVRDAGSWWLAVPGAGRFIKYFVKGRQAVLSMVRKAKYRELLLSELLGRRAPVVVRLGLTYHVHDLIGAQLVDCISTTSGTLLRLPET
Description: Inhibition of wild-type STK19 in human primary melanocytes at 0.1-3 uM relative to control. In kind it is cell-based.

In data set [2] the test system is T2, Inactive serine/threonine-protein kinase 19 (Homo sapiens), P49842 [D89N].
T2 sequence (whole entry): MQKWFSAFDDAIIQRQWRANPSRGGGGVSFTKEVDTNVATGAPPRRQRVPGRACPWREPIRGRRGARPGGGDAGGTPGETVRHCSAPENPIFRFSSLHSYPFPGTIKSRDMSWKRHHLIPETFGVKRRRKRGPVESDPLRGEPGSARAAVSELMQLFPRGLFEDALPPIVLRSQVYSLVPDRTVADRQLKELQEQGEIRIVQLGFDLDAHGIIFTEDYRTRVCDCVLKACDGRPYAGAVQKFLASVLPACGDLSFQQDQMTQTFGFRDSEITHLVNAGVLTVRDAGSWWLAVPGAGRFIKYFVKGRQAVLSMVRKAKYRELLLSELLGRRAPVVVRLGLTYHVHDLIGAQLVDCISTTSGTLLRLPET
Description: Inhibition of STK19 in STK19-depleted human primary melanocytes expressing STK19 D89N mutant at 1-3 uM assessed as NRAS phosphorylation relative to control. In kind it is tissue-based. The conditions noted are these: Melanocyte.

Data set [3] has as its target T3, Histone-lysine N-methyltransferase EHMT2 (Homo sapiens) (UniProt Q96KQ7).
T3 sequence (whole entry): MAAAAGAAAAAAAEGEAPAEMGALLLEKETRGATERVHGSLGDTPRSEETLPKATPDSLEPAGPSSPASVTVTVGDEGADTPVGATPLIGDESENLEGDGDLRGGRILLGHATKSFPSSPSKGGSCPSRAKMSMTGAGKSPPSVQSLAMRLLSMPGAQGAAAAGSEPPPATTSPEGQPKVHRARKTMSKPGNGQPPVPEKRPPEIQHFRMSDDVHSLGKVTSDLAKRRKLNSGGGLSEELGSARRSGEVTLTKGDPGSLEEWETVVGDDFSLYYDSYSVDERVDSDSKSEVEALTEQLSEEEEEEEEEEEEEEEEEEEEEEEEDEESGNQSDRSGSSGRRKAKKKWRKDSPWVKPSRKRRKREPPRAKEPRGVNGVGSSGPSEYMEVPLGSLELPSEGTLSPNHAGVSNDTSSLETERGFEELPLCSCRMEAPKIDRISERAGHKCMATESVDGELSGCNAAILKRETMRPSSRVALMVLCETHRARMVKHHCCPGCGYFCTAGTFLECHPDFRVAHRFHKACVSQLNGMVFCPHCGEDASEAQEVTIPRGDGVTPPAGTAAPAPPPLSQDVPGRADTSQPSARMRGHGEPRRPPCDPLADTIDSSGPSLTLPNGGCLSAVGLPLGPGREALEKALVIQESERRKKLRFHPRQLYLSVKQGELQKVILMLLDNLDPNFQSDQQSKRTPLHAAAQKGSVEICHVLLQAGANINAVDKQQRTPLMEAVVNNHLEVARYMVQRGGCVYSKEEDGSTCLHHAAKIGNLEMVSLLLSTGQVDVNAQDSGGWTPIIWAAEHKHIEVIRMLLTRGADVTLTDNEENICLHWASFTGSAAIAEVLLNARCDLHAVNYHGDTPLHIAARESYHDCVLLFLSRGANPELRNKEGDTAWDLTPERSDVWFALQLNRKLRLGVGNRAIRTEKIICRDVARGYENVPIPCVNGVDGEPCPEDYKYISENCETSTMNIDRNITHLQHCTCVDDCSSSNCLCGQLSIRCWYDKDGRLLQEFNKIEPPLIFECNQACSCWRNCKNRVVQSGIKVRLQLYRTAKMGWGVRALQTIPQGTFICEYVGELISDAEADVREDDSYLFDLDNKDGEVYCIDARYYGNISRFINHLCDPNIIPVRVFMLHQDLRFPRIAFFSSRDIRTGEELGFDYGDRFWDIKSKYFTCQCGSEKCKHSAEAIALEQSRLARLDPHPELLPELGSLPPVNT
Description: Inhibition of G9a in human SK-MEL-2 cells expressing NRAS Q61R and wild-type BRAF at 100-300 nM relative to control. In kind it is cell-based.

The target of data set [4] is T1, Inactive serine/threonine-protein kinase 19 (Homo sapiens). Description: Inhibition of STK19 in human SK-MEL-2 cells expressing NRAS Q61R and wild-type BRAF at 300 nM assessed as NRAS phosphorylation relative to control. It counts as cell-based.
For data set [5] the target is unchanged. As to the kind of experiment: Inhibition of STK19 in human WM2032 cells expressing NRAS Q61R and wild-type BRAF at 100 nM assessed as H3K9 methylation relative to control. In kind it is cell-based.
Data set [6] is described as follows: Toxicity in C57BL/6J mouse assessed as effect on albumin level at 25 mg/kg, administered twice daily for 20 days. It counts as organism-based. The conditions noted are these: in vivo, 480 h.
Data set [7] relates to SK-MEL-2. As to the kind of experiment: Inhibition of STK19 in nude mouse xenografted with human SK-MEL-2 cells assessed as decrease in NRAS phosphorylation at 50 mg/kg. In kind it is functional, organism-based. (A xenograft is tissue or cells of one species grown in another, often human tumour cells in immunodeficient mice.)
For data set [8], the target named is T1, Inactive serine/threonine-protein kinase 19 (Homo sapiens). Description: Inhibition of STK19 in human A375 cells expressing wild-type NRAS and BRAF V600E mutant at 1-3 uM assessed as PI3K signaling relative to control. The conditions noted are these: A-375. It counts as cell-based.
Data set [9] relates to WM2032. Description: Induction of apoptosis in human WM2032 cells expressing NRAS Q61R and wild-type BRAF at 1-3 uM relative to control. It counts as functional, cell-based.
Data set [10] concerns the target T1, Inactive serine/threonine-protein kinase 19 (Homo sapiens). Description: Inhibition of STK19 in human A375 cells expressing wild-type NRAS and BRAF V600E mutant at 1-3 uM assessed as NRAS signaling relative to control. It counts as cell-based. The conditions noted are these: A-375.
A short description of data set [11]: Toxicity in C57BL/6J mouse assessed as kidney histology at 25 mg/kg, administered twice daily for 20 days by H and E staining method. It counts as organism-based. The conditions noted are these: in vivo, 480 h.
Data set [12] deals with SK-MEL-2. Description: Induction of apoptosis in human SK-MEL-2 cells expressing NRAS Q61R and wild-type BRAF at 1-3 uM relative to control. It counts as functional, cell-based.
For data set [13], the system named is SK-MEL-2. As to the kind of experiment: Inhibition of G9a in nude mouse xenografted with human SK-MEL-2 cells assessed as decrease in H3K9 methylation at 50 mg/kg. In kind it is functional, organism-based.
Data set [14] concerns hTERT. As to the kind of experiment: Antiproliferative activity against hTERT/p53DD/CDK4 (R24C) immortal melanocytes expressing wild-type STK19 at 3 uM relative to control. It counts as functional, tissue-based. The conditions noted are these: Homo sapiens.
Data set [15] deals with T1, Inactive serine/threonine-protein kinase 19 (Homo sapiens). Description: Inhibition of STK19 in human SK-MEL-2 cells expressing NRAS Q61R and wild-type BRAF at 1-3 uM assessed as NRAS signaling relative to control. It counts as cell-based.
The nature of data set [16]: Toxicity in nude mouse xenografted with human SK-MEL-2 cells assessed as increase in animal survival at 25 mg/kg. It counts as organism-based. The conditions noted are these: in vivo.
The test system of data set [17] is SK-MEL-2. As to the kind of experiment: Antitumor activity against human SK-MEL-2 cells xenografted in nude mouse assessed as tumor growth inhibition. It counts as functional.

Each structure is given as a SMILES string. Activity calls are given as the source filed them. The calls are words filed in the database; no cut-off is given here.

On to `COc1cc2nc(NC3CC3)nc(NC3CCN(C(C)C)CC3)c2cc1OC.O=C(O)C(F)(F)F`, for which the inhibition result in data set [1], in data set [2], in data set [4], in [7] and in data set [15] was “Active” in each case. The inhibition entry in data set [3], in data set [5], in data set [8], in [10] and in data set [13] was “inactive” throughout. For the same compound, the Activity entry in data set [6], in [11] and in data set [16] was “Non-Toxic” throughout. Further, the result in data set [9], in data set [12] and in data set [14] was Active. Further, in data set [17], the TGI result was “Dose-Dependent Effect”.

The record behind these values is ChEMBL document CHEMBL4804283, “Stk19 inhibitors for treatment of cancer” (2020).
